Read-outs that look alike come from different tables or passages of the source.
Key:
phosphorylation of STAT6 = experiment: Cellular p-STAT6 assay, IL-13 stimulated THP-1 cells, flow cytometry; format: cell-based; conditions: IL-13 10 ng/ml, read-out: pSTAT6 IC50
Procedure: To detect phosphorylated STAT6 (pSTAT6), THP-1 cells were harvested by centrifugation at 250 g for 5 min and resuspended in assay medium (RPMI1640+10% FBS) to 2×10^5 cells/well. Test compounds were applied to assay plates in serial dilution from 1 μM to 0.3 nM in DMSO. THP-1 cells were incubated with serial diluted compounds for 60 min at room temperature, followed by stimulation of interleukin (IL-13, 10 ng/ml) for 30 min, fixed in Cytofix buffer (BD Biosciences), and permeabilized in 90% methanol on ice. PE anti-pSTAT6 (BD Biosciences) antibodies were stained for 60 min at room temperature before being analyzed by flow cytometry. In the assay the compounds were thus diluted and dose-response curves for inhibition of the signal determine the IC50 for the compounds.

JAK2 = molecular target: T1, JAK2 (Homo sapiens, UniProt O60674); experiment: Lance Ultra Kinase Assay, recombinant JAK2; format: biochemical; conditions: 5 mM ATP
T1 construct: purchased Carna Biosciences
Procedure: (§1) Recombinant JAK1, JAK2, JAK3 and TYK2 purchased from Carna Biosciences. The inhibition potency of compounds against JAK1, JAK2, JAK3 and TYK2 was assessed using Lance Ultra Kinase Assay.
(§2) In brief, recombinant kinases were pre-incubated in the presence or absence of compound at room temperature for 15 minutes. The reaction was initiated by the addition of 5 mM ATP and substrate peptide which could be phosphorylated by kinases in the reaction. After 60 minutes incubation, the reaction was stopped by the addition of the detection reagent mix containing EDTA. The fluorescence was measured at 615 nm and 665 nm, respectively with excitation wavelength at 320 nm. The calculated signal ratio of 665 nm/615 nm is proportional to the kinase activity.

TYK2 = molecular target: T2, TYK2 (Homo sapiens, UniProt P29597); experiment: Lance Ultra Kinase Assay, recombinant TYK2; format: biochemical; conditions: 5 mM ATP
T2 construct: purchased Carna Biosciences
Procedure: as §1, §2

JAK1 = molecular target: T3, JAK1 (Homo sapiens, UniProt P23458); experiment: Lance Ultra Kinase Assay, recombinant JAK1; format: biochemical; conditions: 5 mM ATP
T3 construct: purchased Carna Biosciences
Procedure: as §1, §2

JAK3 = molecular target: T4, JAK3 (Homo sapiens, UniProt P52333); experiment: Lance Ultra Kinase Assay, recombinant JAK3; format: biochemical; conditions: 5 mM ATP
T4 construct: purchased Carna Biosciences
T4 sequence (P52333 1-1124): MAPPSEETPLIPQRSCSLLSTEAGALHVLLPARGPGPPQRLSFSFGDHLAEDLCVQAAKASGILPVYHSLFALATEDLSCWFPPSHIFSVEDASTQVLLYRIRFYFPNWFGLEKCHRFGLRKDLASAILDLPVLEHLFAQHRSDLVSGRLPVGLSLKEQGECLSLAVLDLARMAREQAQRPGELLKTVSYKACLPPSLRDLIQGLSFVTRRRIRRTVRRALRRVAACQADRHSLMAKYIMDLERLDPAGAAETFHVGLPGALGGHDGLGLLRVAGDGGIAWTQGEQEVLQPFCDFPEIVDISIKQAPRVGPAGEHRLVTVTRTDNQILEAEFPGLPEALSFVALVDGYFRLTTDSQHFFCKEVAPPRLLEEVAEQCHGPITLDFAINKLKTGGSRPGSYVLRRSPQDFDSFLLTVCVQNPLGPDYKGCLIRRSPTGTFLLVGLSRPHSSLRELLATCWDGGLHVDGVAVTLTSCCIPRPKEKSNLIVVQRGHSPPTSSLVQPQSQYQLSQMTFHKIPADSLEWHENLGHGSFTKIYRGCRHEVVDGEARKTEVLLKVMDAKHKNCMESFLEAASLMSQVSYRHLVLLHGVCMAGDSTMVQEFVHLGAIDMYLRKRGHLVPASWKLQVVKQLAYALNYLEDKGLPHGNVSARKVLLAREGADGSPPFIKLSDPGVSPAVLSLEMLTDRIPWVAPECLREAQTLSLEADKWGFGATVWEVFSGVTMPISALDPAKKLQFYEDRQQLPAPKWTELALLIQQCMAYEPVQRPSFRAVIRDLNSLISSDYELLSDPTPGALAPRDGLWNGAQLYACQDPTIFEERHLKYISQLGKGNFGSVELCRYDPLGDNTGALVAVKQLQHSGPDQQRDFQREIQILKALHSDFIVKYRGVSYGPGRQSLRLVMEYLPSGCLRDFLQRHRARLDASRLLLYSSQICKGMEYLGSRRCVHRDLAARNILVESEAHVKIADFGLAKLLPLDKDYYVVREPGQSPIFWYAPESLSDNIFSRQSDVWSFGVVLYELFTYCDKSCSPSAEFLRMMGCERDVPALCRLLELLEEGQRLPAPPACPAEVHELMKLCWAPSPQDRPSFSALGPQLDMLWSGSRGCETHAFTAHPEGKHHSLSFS
Procedure: as §1, §2

[1] = Homo sapiens, THP-1, THP-1 cells

T3 sequence (P23458 whole entry): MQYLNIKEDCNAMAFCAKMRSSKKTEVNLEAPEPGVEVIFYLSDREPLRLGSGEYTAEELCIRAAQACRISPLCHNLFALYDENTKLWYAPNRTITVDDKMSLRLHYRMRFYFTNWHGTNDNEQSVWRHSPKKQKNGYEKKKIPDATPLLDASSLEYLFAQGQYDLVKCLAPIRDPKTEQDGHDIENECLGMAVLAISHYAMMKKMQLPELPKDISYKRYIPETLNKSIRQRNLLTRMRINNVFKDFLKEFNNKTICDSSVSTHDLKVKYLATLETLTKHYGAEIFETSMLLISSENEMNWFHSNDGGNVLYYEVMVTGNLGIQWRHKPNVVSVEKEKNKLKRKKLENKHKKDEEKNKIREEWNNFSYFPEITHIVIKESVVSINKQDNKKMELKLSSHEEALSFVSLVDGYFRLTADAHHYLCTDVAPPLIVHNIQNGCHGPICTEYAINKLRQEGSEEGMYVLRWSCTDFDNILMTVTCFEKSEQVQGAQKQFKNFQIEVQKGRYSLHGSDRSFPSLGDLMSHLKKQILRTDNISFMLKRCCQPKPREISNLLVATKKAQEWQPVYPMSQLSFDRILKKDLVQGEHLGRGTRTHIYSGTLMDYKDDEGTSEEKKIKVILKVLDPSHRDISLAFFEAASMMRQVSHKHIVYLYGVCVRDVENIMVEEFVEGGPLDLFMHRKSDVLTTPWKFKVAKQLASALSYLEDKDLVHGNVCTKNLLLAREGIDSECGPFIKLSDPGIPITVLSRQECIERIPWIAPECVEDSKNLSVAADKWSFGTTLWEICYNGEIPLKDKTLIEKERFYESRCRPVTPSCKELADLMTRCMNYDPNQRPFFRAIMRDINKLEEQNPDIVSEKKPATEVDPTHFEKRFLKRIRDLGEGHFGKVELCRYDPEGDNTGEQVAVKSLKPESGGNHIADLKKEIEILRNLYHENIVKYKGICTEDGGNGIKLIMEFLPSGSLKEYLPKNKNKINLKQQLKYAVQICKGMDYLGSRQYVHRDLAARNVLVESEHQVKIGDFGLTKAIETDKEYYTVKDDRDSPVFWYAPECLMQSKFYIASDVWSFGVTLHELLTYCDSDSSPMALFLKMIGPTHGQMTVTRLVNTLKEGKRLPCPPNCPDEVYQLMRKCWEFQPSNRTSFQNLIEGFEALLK
T1 sequence (O60674 whole entry): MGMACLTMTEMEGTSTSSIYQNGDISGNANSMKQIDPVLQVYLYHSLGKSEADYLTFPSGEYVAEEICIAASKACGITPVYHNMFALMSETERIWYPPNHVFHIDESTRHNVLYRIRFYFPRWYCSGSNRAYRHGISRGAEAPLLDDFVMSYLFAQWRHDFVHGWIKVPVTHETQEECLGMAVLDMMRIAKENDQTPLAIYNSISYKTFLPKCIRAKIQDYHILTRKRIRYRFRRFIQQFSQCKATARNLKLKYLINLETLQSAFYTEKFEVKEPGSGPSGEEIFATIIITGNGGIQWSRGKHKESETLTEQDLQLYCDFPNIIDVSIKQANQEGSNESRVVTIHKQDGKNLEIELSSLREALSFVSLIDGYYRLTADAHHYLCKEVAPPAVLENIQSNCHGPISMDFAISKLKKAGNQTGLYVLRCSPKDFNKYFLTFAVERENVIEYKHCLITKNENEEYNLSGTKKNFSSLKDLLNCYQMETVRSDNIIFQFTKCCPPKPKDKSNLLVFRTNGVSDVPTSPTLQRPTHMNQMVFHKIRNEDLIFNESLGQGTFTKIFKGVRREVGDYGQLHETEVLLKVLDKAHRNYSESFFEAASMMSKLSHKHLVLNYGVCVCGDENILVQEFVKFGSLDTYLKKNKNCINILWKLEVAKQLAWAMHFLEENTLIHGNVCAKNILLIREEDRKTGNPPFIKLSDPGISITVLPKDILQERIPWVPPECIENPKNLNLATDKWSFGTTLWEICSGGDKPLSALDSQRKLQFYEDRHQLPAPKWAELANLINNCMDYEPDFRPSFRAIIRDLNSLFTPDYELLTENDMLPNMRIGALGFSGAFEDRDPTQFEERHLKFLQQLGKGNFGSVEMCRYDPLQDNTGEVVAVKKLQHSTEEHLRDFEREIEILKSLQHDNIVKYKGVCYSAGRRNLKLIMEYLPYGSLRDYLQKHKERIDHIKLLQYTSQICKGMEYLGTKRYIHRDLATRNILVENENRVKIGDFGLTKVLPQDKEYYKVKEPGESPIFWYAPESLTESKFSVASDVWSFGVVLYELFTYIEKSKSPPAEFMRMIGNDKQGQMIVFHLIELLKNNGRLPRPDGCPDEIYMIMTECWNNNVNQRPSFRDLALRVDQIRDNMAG
T2 sequence (P29597 whole entry): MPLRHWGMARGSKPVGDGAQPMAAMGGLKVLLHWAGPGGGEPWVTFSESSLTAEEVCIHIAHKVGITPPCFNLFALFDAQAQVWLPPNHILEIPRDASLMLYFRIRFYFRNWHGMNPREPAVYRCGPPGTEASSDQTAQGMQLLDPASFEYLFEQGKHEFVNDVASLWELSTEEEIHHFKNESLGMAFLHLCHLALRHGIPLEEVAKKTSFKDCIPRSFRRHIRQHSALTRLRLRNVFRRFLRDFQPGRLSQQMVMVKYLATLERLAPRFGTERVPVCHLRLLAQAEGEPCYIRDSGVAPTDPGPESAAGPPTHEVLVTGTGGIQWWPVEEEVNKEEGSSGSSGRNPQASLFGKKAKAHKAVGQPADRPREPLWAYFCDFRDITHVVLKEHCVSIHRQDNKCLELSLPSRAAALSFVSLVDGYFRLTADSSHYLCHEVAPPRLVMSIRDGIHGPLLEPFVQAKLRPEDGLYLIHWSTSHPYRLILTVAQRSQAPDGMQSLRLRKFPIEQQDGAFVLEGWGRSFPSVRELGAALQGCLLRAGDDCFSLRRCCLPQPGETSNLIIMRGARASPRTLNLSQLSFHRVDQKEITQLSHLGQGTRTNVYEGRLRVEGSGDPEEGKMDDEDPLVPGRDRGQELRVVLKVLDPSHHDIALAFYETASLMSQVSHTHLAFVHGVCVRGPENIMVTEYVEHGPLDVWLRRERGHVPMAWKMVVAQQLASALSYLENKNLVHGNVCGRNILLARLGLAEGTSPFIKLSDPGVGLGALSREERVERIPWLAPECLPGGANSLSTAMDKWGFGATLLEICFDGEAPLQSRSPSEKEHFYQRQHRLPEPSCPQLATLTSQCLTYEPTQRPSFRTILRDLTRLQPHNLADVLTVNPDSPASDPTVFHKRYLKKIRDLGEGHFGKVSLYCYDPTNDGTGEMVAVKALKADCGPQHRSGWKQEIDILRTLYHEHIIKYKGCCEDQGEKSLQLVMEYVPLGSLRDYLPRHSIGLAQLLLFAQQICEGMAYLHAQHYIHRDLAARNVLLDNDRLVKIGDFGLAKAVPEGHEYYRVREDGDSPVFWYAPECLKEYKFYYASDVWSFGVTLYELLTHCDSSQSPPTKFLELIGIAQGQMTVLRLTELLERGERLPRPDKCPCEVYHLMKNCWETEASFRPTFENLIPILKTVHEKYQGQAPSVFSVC

IC50 (phosphorylation of STAT6; THP-1 cells) | IC50 (JAK2) | IC50 (TYK2) | IC50 (JAK1) | IC50 (JAK3) | IC50 (phosphorylation of STAT6; [1]) | Structure (SMILES)
9.8 nM | 74 nM | 939 nM | 0.31 nM | > 10000 nM |  | COC[C@H](C(=O)Nc1cccc2c(-c3nc(Nc4ccc(C(C)O)nc4)ncc3F)c[nH]c12)N1CCN(C)CC1 (single isomer, unassigned; isomer 1) [Example 29, 5-fluoro-2-((6-(1-hydroxyethyl)pyridin-3-yl)amino)pyrimidin-4-yl)-1H-indol-7-yl)-3-methoxy-2-(4-methylpiperazin-1-yl)propanamide (isomer 1)]
 | 20 nM | 330 nM | 0.25 nM | 9950 nM | 6.5 nM | COC[C@H](C(=O)Nc1cccc2c(-c3nc(Nc4ccc(C(C)O)nc4)ncc3F)c[nH]c12)N1CCN(C)CC1 (single isomer, unassigned; isomer 2) [Example 9]
 | 452 nM | 4660 nM | 0.42 nM | > 10000 nM | 6 nM | COC[C@H](C(=O)Nc1cccc2c(-c3nc(Nc4cnn(-c5ccccc5C(=O)OC)c4)ncc3F)c[nH]c12)N1CCN(C)CC1 [Example 6, methyl (R)-2-(4-((5-fluoro-4-(7-(3-methoxy-2-(4-methylpiperazin-1-yl)propanamido)-1H-indol-3-yl)pyrimidin-2-yl)amino)-1H-pyrazol-1-yl)benzoate]
 | 58 nM | 634 nM | 0.21 nM | > 10000 nM | 6.2 nM | COC[C@H](C(=O)Nc1cccc2c(-c3nc(Nc4cnc(C)c(C(=O)OC)c4)ncc3F)c[nH]c12)N1CCN(C)CC1 [Example 7, methyl (R)-5-((5-fluoro-4-(7-(3-methoxy-2-(4-methylpiperazin-1-yl)propanamido)-1H-indol-3-yl)pyrimidin-2-yl)amino)-2-methylnicotinate]
 | 336 nM | 4200 nM | 0.2 nM | > 10000 nM | 7.3 nM | COC[C@H](C(=O)Nc1cccc2c(-c3nc(Nc4ccc(OCC(=O)OC)nc4)ncc3F)c[nH]c12)N1CCN(C)CC1 [Example 14, methyl (R)-2-((5-((5-fluoro-4-(7-(3-methoxy-2-(4-methylpiperazin-1-yl)propanamido)-1H-indol-3-yl)pyrimidin-2-yl)amino)pyridin-2-yl)oxy)acetate]
 | 125 nM | 1150 nM | 0.2 nM | > 10000 nM | 8.4 nM | COC[C@H](C(=O)Nc1cccc2c(-c3nc(Nc4cncc(C(=O)OC)c4)ncc3F)c[nH]c12)N1CCN(C)CC1 [Example 21, methyl (R)-5-((5-fluoro-4-(7-(3-methoxy-2-(4-methylpiperazin-1-yl)propanamido)-1H-indol-3-yl)pyrimidin-2-yl)amino)nicotinate]

Second part, the compound before the results:

Structure (SMILES) | IC50 (phosphorylation of STAT6; THP-1 cells) | IC50 (JAK2) | IC50 (TYK2) | IC50 (JAK1) | IC50 (JAK3) | IC50 (phosphorylation of STAT6; [1])
COC[C@H](C(=O)Nc1cccc2c(-c3nc(Nc4cnc(CO)c(C)c4)ncc3F)c[nH]c12)N1CCN(C)CC1 [Example 3, (R)-N-(3-(5-fluoro-2-((6-(hydroxymethyl)-5-methylpyridin-3-yl)amino)pyrimidin-4-yl)-1H-indol-7-yl)-3-methoxy-2-(4-methylpiperazin-1-yl)propanamide] |  | 4 nM | 156 nM | 0.19 nM | 7700 nM | 4.5 nM
COC[C@H](C(=O)Nc1cccc2c(-c3nc(Nc4cnn(C5CCOCC5)c4)ncc3F)c[nH]c12)N1CCN(C)CC1 [Example 18, (R)-N-(3-(5-fluoro-2-((1-(tetrahydro-2H-pyran-4-yl)-1H-pyrazol-4-yl)amino)pyrimidin-4-yl)-1H-indol-7-yl)-3-methoxy-2-(4-methylpiperazin-1-yl)propanamide] |  | 22 nM | 1090 nM | 0.14 nM | 7730 nM | 7.6 nM
COC[C@H](C(=O)Nc1cccc2c(-c3nc(Nc4cnc5cn[nH]c5c4)ncc3F)c[nH]c12)N1CCN(C)CC1 [Example 19, (R)-N-(3-(2-((1H-pyrazolo[4,3-b]pyridin-6-yl)amino)-5-fluoropyrimidin-4-yl)-1H-indol-7-yl)-3-methoxy-2-(4-methylpiperazin-1-yl)propanamide] |  | 215 nM |  | 0.27 nM | > 10000 nM | 7.7 nM
CNCCOc1ccc(Nc2ncc(F)c(-c3c[nH]c4c(NC(=O)[C@@H](COC)N5CCN(C)CC5)cccc34)n2)cn1 [Example 20, (R)-N-(3-(5-fluoro-2-((6-(2-(methylamino)ethoxy)pyridin-3-yl)amino)pyrimidin-4-yl)-1H-indol-7-yl)-3-methoxy-2-(4-methylpiperazin-1-yl)propanamide] |  | 135 nM | 2400 nM | 0.65 nM | > 10000 nM | 7.9 nM
COC[C@H](C(=O)Nc1cccc2c(-c3nc(Nc4ccc(-c5ncco5)nc4)ncc3F)c[nH]c12)N1CCN(C)CC1 [Example 22, (R)-N-(3-(5-fluoro-2-((6-(oxazol-2-yl)pyridin-3-yl)amino)pyrimidin-4-yl)-1H-indol-7-yl)-3-methoxy-2-(4-methylpiperazin-1-yl)propanamide] |  | 467 nM | 5250 nM | 0.24 nM | > 10000 nM | 8.5 nM
COC[C@H](C(=O)Nc1cccc2c(-c3nc(Nc4ccc(-n5ccnc5)nc4)ncc3F)c[nH]c12)N1CCN(C)CC1 [Example 24, (R)-N-(3-(2-((6-(1H-imidazol-1-yl)pyridin-3-yl)amino)-5-fluoropyrimidin-4-yl)-1H-indol-7-yl)-3-methoxy-2-(4-methylpiperazin-1-yl)propanamide] |  | 403 nM | 2570 nM | 0.82 nM | > 10000 nM | 8.9 nM
COC[C@H](C(=O)Nc1cccc2c(-c3nc(Nc4cncc(CCCO)c4)ncc3F)c[nH]c12)N1CCN(C)CC1 [Example 25, (R)-N-(3-(5-fluoro-2-((5-(3-hydroxypropyl)pyridin-3-yl)amino)pyrimidin-4-yl)-1H-indol-7-yl)-3-methoxy-2-(4-methylpiperazin-1-yl)propanamide] |  | 9 nM | 273 nM | 0.2 nM | > 10000 nM | 8.9 nM
COC[C@H](C(=O)Nc1cccc2c(-c3nc(Nc4ccc5scnc5c4)ncc3F)c[nH]c12)N1CCN(C)CC1 [Example 26, (R)-N-(3-(2-(benzo[d]thiazol-5-ylamino)-5-fluoropyrimidin-4-yl)-1H-indol-7-yl)-3-methoxy-2-(4-methylpiperazin-1-yl)propanamide] |  | 100 nM | 1260 nM | 0.07 nM | > 10000 nM | 9.1 nM
COC[C@H](C(=O)Nc1cccc2c(-c3nc(Nc4cncc(O)c4)ncc3F)c[nH]c12)N1CCN(C)CC1 [Example 28, (R)-N-(3-(5-fluoro-2-((5-hydroxypyridin-3-yl)amino)pyrimidin-4-yl)-1H-indol-7-yl)-3-methoxy-2-(4-methylpiperazin-1-yl)propanainide] |  | 162 nM | 1180 nM | 0.12 nM | > 10000 nM | 9.6 nM

Reference: patent US12606544B2, “JAK1 selective kinase inhibitor” (DIZAL (JIANGSU) PHARMACEUTICAL CO., LTD., priority 2019, dated 2026)
